The values below come from BindingDB's records for doi:10.1021/jm800527x (Roche Palo Alto, 2008).

As a reminder, the pEC50 is −log10 of the EC50, conventionally taken in molar units. Higher therefore signals a small EC50.

pEC50: −log10 of the molar value.

For assay [1], the target named is T1, Gag-Pol polyprotein [588-1027,K691N,Y769C]/[588-1147,K691N,Y769C] (Human immunodeficiency virus 1, UniProt P04585, K691N/Y769C).
T1 construct: 588-1027; 588-1147
Put plainly: HIV-1 Reverse Transcriptase Assay. The conditions noted are these: pH 8; 30 °C. An excerpt:
(§1) IC50s were obtained from the inhibition of the RNA-dependent DNA polymerase activity of the HIV-1 reverse transcriptase enzyme using a primer extension assay. EC50s were obtained from inhibition of virus-induced cell-death in MT-4 cells.

In assay [2] the target is T2, Gag-Pol polyprotein [588-1027] (Human immunodeficiency virus type 1 group M subtype B (isolate HXB2), UniProt P04585).
T2 construct: 588-1027
Put plainly: HIV-1 Reverse Transcriptase Assay. The settings on record: pH 8; 30 °C.
From the text: as §1

Consider `Cc1cc(C#N)cc(Oc2ccc(Cc3n[nH]c4nnccc34)cc2Br)c1` [3-(2-bromo-4-{1H-pyrazolo[3,4-c]pyridazin-3-ylmethyl}phenoxy)-5-methylbenzonitrile], for which, in assay [1], the negative-log EC50 (pEC50) was under 7.00.

As to `N#Cc1cc(Cl)cc(Oc2c(Br)ccc(Cc3n[nH]c4nccnc34)c2F)c1` [3-(6-bromo-2-fluoro-3-{1H-pyrazolo[3,4-b]pyrazin-3-ylmethyl}phenoxy)-5-chlorobenzonitrile], the results for the pEC50 in assay [2] and in assay [1] were under 7.60 and under 7.00, respectively.
